Assay results reported in ChEMBL document CHEMBL5465560, “Selectivity Literature for EUbOPEN Chemogenomic Library” (2024).

Legend:
[1] = target: T1, Serine/threonine-protein kinase tousled-like 1 (Homo sapiens) (UniProt Q9UKI8); experiment: Selectivity interaction (ActivX KiNativ screen (ex vivo kinase selectivity in human PBMCs)) EUB0001619a TLK1; format: cell-based; details: PBMC, at 1 µM
T1 sequence (whole entry): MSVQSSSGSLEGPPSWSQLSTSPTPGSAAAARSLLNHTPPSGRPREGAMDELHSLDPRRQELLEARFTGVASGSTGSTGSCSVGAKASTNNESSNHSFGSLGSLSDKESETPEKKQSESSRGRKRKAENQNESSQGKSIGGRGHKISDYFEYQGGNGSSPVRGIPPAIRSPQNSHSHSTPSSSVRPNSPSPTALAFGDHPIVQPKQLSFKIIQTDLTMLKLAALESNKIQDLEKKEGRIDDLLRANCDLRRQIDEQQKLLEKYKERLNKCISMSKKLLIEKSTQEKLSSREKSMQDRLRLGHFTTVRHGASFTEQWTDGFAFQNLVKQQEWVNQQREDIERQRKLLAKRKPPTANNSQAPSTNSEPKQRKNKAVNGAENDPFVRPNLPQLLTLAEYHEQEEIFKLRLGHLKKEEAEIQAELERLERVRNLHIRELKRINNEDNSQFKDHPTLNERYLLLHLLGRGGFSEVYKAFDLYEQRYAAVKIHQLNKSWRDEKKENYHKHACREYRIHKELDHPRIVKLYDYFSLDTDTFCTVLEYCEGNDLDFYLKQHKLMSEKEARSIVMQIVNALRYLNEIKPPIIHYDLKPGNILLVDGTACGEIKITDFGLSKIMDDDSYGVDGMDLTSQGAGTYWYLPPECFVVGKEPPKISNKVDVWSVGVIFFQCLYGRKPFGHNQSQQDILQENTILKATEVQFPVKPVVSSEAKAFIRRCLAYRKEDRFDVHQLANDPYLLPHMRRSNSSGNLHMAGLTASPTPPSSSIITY

[2] = target: T2, Phosphatidylinositol 3-kinase C2 domain-containing subunit gamma (Homo sapiens) (UniProt O75747); experiment: Selectivity interaction (Adapta Assay) EUB0001632a PIK3C2G; details: at 10 µM
T2 sequence (whole entry): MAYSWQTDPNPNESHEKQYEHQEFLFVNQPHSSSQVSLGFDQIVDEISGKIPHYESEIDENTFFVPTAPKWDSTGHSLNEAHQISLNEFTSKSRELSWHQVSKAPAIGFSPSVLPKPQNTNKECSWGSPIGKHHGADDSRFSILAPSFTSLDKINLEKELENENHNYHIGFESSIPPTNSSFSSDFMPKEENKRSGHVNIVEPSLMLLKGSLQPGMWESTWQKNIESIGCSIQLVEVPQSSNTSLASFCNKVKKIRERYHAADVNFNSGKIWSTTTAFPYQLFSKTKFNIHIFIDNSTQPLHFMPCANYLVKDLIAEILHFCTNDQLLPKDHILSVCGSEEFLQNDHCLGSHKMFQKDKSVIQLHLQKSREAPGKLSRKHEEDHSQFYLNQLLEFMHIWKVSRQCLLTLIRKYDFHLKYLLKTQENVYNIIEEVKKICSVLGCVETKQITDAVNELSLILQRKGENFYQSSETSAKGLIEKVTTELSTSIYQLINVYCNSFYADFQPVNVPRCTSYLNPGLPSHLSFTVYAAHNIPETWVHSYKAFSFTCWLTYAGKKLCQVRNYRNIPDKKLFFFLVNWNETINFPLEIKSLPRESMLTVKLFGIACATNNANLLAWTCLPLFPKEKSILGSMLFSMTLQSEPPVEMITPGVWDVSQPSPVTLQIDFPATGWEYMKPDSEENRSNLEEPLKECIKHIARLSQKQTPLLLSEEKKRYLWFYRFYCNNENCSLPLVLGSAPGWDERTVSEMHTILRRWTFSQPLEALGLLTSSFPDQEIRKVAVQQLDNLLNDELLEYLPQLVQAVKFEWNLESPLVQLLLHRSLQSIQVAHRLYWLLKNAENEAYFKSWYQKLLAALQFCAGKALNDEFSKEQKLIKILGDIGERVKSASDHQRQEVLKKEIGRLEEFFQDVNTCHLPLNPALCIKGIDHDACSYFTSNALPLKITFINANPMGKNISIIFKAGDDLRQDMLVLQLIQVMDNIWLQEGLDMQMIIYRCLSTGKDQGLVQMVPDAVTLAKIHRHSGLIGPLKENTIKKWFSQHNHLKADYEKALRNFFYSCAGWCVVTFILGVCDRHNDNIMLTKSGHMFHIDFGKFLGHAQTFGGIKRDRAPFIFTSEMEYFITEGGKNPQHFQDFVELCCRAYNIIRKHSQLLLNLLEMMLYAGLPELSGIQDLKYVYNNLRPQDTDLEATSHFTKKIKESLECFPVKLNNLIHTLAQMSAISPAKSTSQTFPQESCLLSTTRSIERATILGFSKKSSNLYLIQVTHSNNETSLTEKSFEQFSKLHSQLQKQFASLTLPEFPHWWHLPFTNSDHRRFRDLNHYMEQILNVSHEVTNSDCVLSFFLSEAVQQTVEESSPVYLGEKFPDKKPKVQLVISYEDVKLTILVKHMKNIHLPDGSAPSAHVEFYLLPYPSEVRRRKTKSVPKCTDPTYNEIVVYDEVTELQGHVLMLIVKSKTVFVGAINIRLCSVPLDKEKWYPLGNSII

[3] = target: T3, cGMP-dependent protein kinase 1 (Homo sapiens) (UniProt Q13976); experiment: Selectivity interaction (Kinase panel (Z-LYTE Assay)) EUB0001632a PRKG1; details: at 10 µM
T3 sequence (whole entry): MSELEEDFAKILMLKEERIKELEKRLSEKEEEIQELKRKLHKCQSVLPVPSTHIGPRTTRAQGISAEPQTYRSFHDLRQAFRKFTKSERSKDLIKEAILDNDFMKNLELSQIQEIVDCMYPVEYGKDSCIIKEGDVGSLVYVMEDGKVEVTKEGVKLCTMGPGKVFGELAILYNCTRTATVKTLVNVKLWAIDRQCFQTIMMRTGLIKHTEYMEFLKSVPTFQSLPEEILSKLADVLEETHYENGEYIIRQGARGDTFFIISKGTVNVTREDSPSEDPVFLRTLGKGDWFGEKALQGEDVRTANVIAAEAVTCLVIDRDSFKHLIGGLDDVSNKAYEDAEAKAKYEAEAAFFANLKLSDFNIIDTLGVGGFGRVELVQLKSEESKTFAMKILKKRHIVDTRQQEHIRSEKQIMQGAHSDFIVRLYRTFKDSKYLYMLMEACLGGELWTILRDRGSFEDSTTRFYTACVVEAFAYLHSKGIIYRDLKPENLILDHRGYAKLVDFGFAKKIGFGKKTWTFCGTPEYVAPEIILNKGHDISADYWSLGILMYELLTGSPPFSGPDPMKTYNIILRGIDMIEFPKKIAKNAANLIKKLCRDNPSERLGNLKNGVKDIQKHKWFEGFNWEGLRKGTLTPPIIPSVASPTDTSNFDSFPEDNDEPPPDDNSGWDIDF

SMILES: N#Cc1cccc(-c2c[nH]c3ncnc(N4CCOCC4)c23)c1
- % of inhibition [1]: -4%

SMILES: Cn1cc(-n2cnc3c(NCc4nc5cc(Cl)c(Cl)cc5[nH]4)nc(N4CCOCC4)nc32)cn1
- % of inhibition [2]: -0.366%
- % of control [3]: -8.04%
